Reference: patent US20090012130A1, “Strategies for Designing Drugs that Target the Sir2 Family of Enzymes” (priority 2005, published 2009)
“Also recorded” adds a separate entry of the source.

Assays:
Sir2Tm-D101N mutant [1] = molecular target: T1, Sir2Tm-D101N mutant (Thermotoga maritima, UniProt Q9WYW0, D101N); assay: biochemical; assay type: biochemical; set-up: made in house; host or cells: E. coli; conditions: for apparent kcat of cosubstrate-dependent deacetylation / Km / IC50: Sir2Tm-D101N mutant; for Km: 400 μM fluorolabeled peptide, read-out: apparent KM for cosubstrate; for IC50: fluorolabeled p53 peptide, 37° C.
T1 sequence (Q9WYW0 whole entry D101N, the tested form may be a part): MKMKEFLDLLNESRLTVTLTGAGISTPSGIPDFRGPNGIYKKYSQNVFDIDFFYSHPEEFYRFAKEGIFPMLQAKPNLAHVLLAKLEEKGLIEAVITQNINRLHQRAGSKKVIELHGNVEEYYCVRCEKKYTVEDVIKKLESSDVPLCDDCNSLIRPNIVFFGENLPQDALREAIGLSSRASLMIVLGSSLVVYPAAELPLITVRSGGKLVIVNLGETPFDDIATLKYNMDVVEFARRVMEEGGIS
Protocol: (§1) The deacetylation activity was measured using the Fluor de Lys-SirT1 assay (Biomol), using a peptide containing amino acids 379-RHK-K(Ac)-382 of p53 as substrate. […] The reactions were carried out at 37° C. in a 50 μL reaction volume containing 50 mM Tris, pH 8, 50 mM NaCl and 400 μM fluorolabeled peptide (˜10 times KM). […] Reactions were done at least in triplicate. The data were fitted to the Michaelis-Menten equation using SigmaPlot to obtain the kinetic constants. […] The data were fitted to equation (1) using SigmaPlot (SYSTAT) to calculate the IC50 values:
(§2) vI=v0(1−(I/(IC50+I))) Equation (1)
(§3) where v0 is the initial rate of the uninhibited reaction and vI is the initial rate of the reaction at concentration I of inhibitor.

Sir2Tm wild type [2] = molecular target: T2, Sir2Tm wild type (Thermotoga maritima, UniProt Q9WYW0); assay type: biochemical; set-up: made in house; host or cells: E. coli
T2 sequence (Q9WYW0 whole entry): as the sequence (Q9WYW0 whole entry D101N, the tested form may be a part) above, with N101D counted along it
Protocol: as §1, §2, §3

Sir2Tm-D101N mutant [3] = molecular target: T1, Sir2Tm-D101N mutant; conditions: Sir2Tm-D101N mutant 2.5 mg/mL; 0.1 mM ^14C-labelled base, 2 mM NAD^+, 500 μM acetylated p53 peptide, 37° C., 3 hours
Protocol: (§4) After incubation at 37° C. for 3 hours, 8 μL of each reaction was spotted on a Polygram SIL-G TLC plate (Machevey-Nagel, 20×20). The plate was developed in a pre equilibrated chamber with 80:20 ethanol:2.5 M ammonium acetate. After chromatography, the plate was air dried and exposed to a phosphorimaging screen overnight.

Sir2Tm wild type [4] = molecular target: T2, Sir2Tm wild type; conditions: 0.1 mM ^14C-labelled base, 2 mM NAD^+, 500 μM acetylated p53 peptide, 37° C., 3 hours
Protocol: as §4

Nc1ncnc2c1ncn2[C@@H]1O[C@H](COP(=O)(O)OP(=O)(O)OC[C@H]2O[C@@H]([n+]3cccc(C(=O)O)c3)[C@H](O)[C@@H]2O)[C@@H](O)[C@H]1O [NAAD, nicotinic acid adenine dinucleotide]
apparent kcat of cosubstrate-dependent deacetylation (Sir2Tm-D101N mutant [1]): (1.1±0.1)×10^−3 s^−1
Km (Sir2Tm-D101N mutant [1]): 617 ± 43 µM
deacetylation activity with the dinucleotide as cosubstrate (Sir2Tm wild type [2]; up to 2.56 mg/ml enzyme, incubation 4 hours): no detectable deacetylation activity; also recorded: undetectable

O=C(O)c1cccnc1 [nicotinic acid]
IC50 (Sir2Tm-D101N mutant [1]; IC50, inhibition of NAAD-dependent deacetylation activity, 2 mM NAAD): 6.2 ± 2 mM
IC50 (Sir2Tm-D101N mutant [1]; IC50, inhibition of NAD^+-dependent deacetylation activity, 2 mM NAD^+): 11.3 ± 3.3 mM
base exchange activity (formation of labelled dinucleotide) (Sir2Tm-D101N mutant [3]): able to synthesize ^14C-labelled NAAD
base exchange activity (formation of labelled dinucleotide) (Sir2Tm wild type [4]): cannot do; also recorded: no detectable formation of NAAD
inhibition of wild type enzyme deacetylation activity (Sir2Tm wild type [2]; inhibitor added to concentrations of up to 100 mM): fail to inhibit

NC(=O)c1cccnc1 [nicotinamide]
base exchange activity (formation of labelled dinucleotide) (Sir2Tm-D101N mutant [3]): could catalyze formation of labeled NAD^+
base exchange activity (formation of labelled dinucleotide) (Sir2Tm wild type [4]): could catalyze formation of labeled NAD^+

NC(=O)c1ccc[n+]([C@@H]2O[C@H](COP(=O)([O-])OP(=O)(O)OC[C@H]3O[C@@H](n4cnc5c(N)ncnc54)[C@H](O)[C@@H]3O)[C@@H](O)[C@H]2O)c1 [NAD^+, nicotinamide adenine dinucleotide]
apparent kcat of cosubstrate-dependent deacetylation (Sir2Tm-D101N mutant [1]): (1.8±0.1)×10^−3 s^−1
Km (Sir2Tm-D101N mutant [1]): 1170 ± 180 µM
fold increase of KM, D101N mutant versus wild type (Sir2Tm-D101N mutant [1]; Sir2Tm-D101N versus wild type Sir2Tm): 22 fold
kcat of cosubstrate-dependent deacetylation (Sir2Tm wild type [2]): 0.170 ± 0.006 s⁻¹
Km (Sir2Tm wild type [2]; 400 μM fluorolabeled peptide, read-out: KM for cosubstrate): 53 ± 11 µM
